In the Kinase Knowledgebase extract (Sharma et al. 2016):

target: EGFR (human) (UniProt P00533)
Sequence (P00533 whole entry, looked up): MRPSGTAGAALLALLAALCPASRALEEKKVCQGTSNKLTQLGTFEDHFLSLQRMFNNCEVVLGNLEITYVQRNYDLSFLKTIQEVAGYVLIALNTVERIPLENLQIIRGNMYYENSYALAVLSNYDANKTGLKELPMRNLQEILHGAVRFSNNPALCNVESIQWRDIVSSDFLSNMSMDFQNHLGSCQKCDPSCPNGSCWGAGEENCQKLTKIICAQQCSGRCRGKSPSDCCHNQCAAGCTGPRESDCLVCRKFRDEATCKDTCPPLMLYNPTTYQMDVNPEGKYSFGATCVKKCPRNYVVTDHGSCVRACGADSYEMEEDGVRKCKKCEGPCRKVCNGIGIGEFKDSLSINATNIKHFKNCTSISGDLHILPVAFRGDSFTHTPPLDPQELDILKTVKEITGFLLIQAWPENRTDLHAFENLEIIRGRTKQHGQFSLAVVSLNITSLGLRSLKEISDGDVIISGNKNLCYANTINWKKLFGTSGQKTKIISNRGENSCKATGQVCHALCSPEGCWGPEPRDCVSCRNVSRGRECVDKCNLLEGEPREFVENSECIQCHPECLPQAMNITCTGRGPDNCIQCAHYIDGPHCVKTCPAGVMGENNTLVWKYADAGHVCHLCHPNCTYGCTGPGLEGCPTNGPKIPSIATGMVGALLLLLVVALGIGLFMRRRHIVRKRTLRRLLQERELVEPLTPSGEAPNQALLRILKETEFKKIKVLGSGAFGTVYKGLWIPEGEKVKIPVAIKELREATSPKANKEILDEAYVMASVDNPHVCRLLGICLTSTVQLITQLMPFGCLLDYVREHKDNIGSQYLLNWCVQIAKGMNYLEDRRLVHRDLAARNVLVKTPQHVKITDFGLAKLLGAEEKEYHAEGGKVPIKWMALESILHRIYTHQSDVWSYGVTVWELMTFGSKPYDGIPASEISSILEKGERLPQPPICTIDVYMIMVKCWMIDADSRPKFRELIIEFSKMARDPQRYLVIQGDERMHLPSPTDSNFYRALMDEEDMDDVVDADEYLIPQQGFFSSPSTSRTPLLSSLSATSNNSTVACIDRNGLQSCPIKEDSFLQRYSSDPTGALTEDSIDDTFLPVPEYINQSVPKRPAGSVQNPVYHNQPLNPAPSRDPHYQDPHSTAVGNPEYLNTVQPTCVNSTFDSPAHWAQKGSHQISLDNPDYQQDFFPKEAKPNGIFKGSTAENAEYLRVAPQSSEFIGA

IC50, > 10 µM:
COc1cc2ncnc(Oc3ccc(NC(=O)Nc4ccccc4)cc3)c2cc1OC
COc1cc2ncnc(Oc3ccc(NC(=O)Nc4ccc(F)cc4F)cc3)c2cc1OC
COc1cc2ncnc(Nc3ccc(NC(=O)Nc4ccccc4)cc3)c2cc1OC
COc1ccc(NC(=O)Nc2cccc(Oc3ncnc4cc(OC)c(OC)cc34)c2)cc1
CCOC(=O)Nc1ccc(Nc2ncnc3cc(OCCN(CC)CC)c(OC)cc23)cc1Cl
COc1cc2ncnc(Oc3ccc(NC(=O)Nc4ccc(Br)cc4)cc3)c2cc1OC
COc1cc2ncnc(Oc3ccc(NC(=O)Nc4ccc(F)c(Cl)c4)cc3)c2cc1OC
CCOC(=O)Nc1ccc(Nc2ncnc3cc(OC)c(OC)cc23)cc1
COc1cc2ncnc(Oc3ccc(NC(=O)NC4CCCCC4)cc3)c2cc1OC
CCCC(=O)Nc1ccc(Nc2ncnc3cc(OC)c(OC)cc23)cc1C
CCOC(=O)Nc1ccc(Nc2ncnc3cc(OC)c(OCCN(CC)CC)cc23)cc1C
CCCCOc1cc2c(Nc3ccc(NC(=O)OCC)c(C)c3)ncnc2cc1OCCN(CC)CC
CCCCNC(=O)Nc1ccc(Oc2ncnc3cc(OC)c(OC)cc23)cc1
COc1ccc(NC(=O)Nc2ccc(Oc3ncnc4cc(OC)c(OC)cc34)cc2)cc1
COC(=O)Nc1ccc(Oc2ncnc3cc(OC)c(OC)cc23)cc1
CCOC(=O)Nc1ccc(Nc2ncnc3cc(OCCN(CC)CC)c(OC)cc23)cc1C
CCOC(=O)Nc1ccc(Oc2ncnc3cc(OC)c(OC)cc23)cc1
COc1cc2ncnc(Oc3cccc(NC(=O)Nc4ccccc4)c3)c2cc1OC
COc1cc2ncnc(Oc3ccc(F)c(Cl)c3)c2cc1OC
COc1cc2ncnc(Oc3ccc(NC(=O)Nc4ccc5ccccc5c4)cc3)c2cc1OC
CCCCC(=O)Nc1ccc(Nc2ncnc3cc(OC)c(OC)cc23)cc1C
COc1cc2ncnc(Nc3ccc(NC(=O)Nc4ccc(F)c(Cl)c4)cc3)c2cc1OC
